The source of these data is patent US5066666A, “Aminoazole derivatives and their production and use” (Sumitomo Pharmaceuticals Company, Limited, priority 1986, dated 1991).

Where two headings read alike, the source gives them in different places.

For series [1], the system named is adjuvant arthritis. Put plainly: Rat-Adjuvant Arthritis Test. The format is in vivo, male Sprague-Dawley rats. Conditions: for minimal effective dose: Rattus norvegicus, po, orally once a day for 5 days (day 15 to 19), lowest dose with significant reduction (p<0.001) of foot volume, read-out: Minimum Effective Dose Adjuvant Arthritis; for effect in rat adjuvant arthritis test, in words: in vivo. From the text: Rat adjuvant arthritis test is one of a few and most useful pharmacological model for the investigation of human […] inflammation. It is known that the effective compounds to this model system are useful for treatment of rheumatoid arthritis, such as steroids or non-steroidal anti-inflammatory drugs (Oyo Yakuri, 5, 169 (1971).
According to the method of Winter et al., Arth. Rheum., 9, 394 (1966), male Sprague-Dawley rats, 6 weeks of age, were given subplantar injection of the adjuvant consisting of 1 mg of killed Mycobacterium butyricum (Difco) and 0.2 ml of liquid paraffin. Fourteen days after, the rats with established arthritis were treated by the drug as follows: the test compound was suspended in 5% gum arabic solution and orally given once a day for 5 days, day 15 to day 19. Control rats were given gum arabic in the same way. On day 19, the volume of right foot was determined with a plethusometer. The lowest dose which gave significant reduction (p<0.001)of the foot volume from that of the control group was regarded as a minimum effective dose (MED).

Series [2] addresses T1, 5-lipoxygenase (Cavia porcellus, UniProt A0A286X958).
T1 construct: polymorphonuclear leukocytes (PMNs) from Hartley guinea pigs; endogenous in cells; host or cells: casein-elicited peritoneal polymorphonuclear leukocytes of Hartley guinea pigs (intact cells)
T1 sequence (A0A286X958 1-674): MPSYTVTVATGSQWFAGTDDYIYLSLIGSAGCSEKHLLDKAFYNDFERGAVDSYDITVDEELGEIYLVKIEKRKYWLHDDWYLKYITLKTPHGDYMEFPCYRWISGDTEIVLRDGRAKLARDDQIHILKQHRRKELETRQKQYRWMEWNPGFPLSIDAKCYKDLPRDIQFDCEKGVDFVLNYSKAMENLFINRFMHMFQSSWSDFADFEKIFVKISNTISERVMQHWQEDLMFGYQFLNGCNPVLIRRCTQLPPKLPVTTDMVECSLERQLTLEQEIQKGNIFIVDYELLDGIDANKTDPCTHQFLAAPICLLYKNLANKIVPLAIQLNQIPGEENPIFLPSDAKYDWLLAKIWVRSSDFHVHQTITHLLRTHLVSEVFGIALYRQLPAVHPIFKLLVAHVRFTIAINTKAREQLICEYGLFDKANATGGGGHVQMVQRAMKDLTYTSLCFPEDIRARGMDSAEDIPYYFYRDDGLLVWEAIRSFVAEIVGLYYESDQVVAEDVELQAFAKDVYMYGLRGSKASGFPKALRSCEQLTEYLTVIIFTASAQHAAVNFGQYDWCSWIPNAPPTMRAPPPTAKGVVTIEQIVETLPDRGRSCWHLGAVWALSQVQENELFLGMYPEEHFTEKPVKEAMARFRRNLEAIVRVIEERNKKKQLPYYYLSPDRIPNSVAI
Put plainly: 5-Lypoxygenase Inhibitory Test. Particulars: PMNs from guinea pigs, A23187 stimulated, [14C] arachidonic acid; Inhibition (%) classes. The class given is cell-based, Hartley guinea pigs. The method, then:
According to the method of Harvey et al., J. Pharmacol. Meth., 9, 147-155 (1983), polymorphonuclear leukocytes (PMNs) from Hartley guinea pigs weighting 280 to 350 g were elicited by intraperit oneal injection of 2% casein suspension (10 ml/100 g guiner pig weight), and collected 16-18 hrs later. The cells were washed with saline and finally suspended at 2.39×10^7 cells/ml in Krebs Ringer Bicarbonate buffer (KBR) pH 7.4.
935 μl of PMNs were aliquoted into 15 ml glass tubes and prewarmed to 37° C. in a shaking water bath. Drugs (10 μl of dimethylsulfoxide (DMSO)) were added 10 minutes prior to the addition of 1-^14 C-arachidonic acid (New England Neuclear Co.; 50 μl of 2 μCi/mlKBR) and calciumionophor, A23187 (Calbiochem Boehring Co.; 5 μl of 1 mg/mlDMSO). The reaction was terminated after a further 10 min by the addition of 0.2M citric acid (100 μl). Unstimulated controls were also included to determine the increased metabolism of arachidonic acid due to A23187. Samples were diluted with water (4 ml) and extracted twice with ethyl acetate (5 ml). The ethyl acetate was concentrated under a stream of nitrogen and two-thirds of the residue was applied to TLC plates. The plates were developed in toluene:dioxane:acetic acid=65:34:1.5at 10° C.
Radiochromatographic analysis of the labelled metabolites of [^14 C] arachidonic acid utilized a Berthold LB283 TLC Linear Analyzer. In samples and controls, a ratio of radioactivity of 5-HETE in metabolites to all of metabolites of [^14 C] arachidonic acid was calculated, and results were determined as percent inhibition calculated from those retios.

Series [3] deals with Arthus reaction. Put plainly: Mice-Arthus Test. The format is in vivo, male BABL/c mice. Particulars: for minimal effective dose: Mus musculus, 3 h, orally 24 hr and 1 hr before the challenge, read-out: Minimum Effective Dose Arthus. The method, then: The activity of effect for rheumatoid arthritis may be estimated by effect for Arthus reaction. […] Two weeks later, mice were boosted by the i.v. injection of 8×10^7 SRBC and 5 day later the animals were challenged by the subcutaneous injection of 1×10^8 SRBC in 25 μl of PBS into the right hind footpad. The thickness of the SRBC-injection right hind paw and contralateral left hind paw were measured with micrometer 3 hr after the challenge. The difference between these two measurements is regarded as the oedema due to the Arthus reaction. Percentage inhibition of the reaction was determined by comparison with the positive control group. The test compounds were administered orally 24 hr and 1 hr before the challenge.

Series [4] has as its system Arthus reaction. Particulars: background statement; cited from earlier work.
In series [5] the test system is adjuvant arthritis. Particulars: background statement; cited from earlier work.
For series [6] the following is noted: background statement, clinical use, cited from earlier work.

As to `CC(c1ccc(-c2ccccc2)c(F)c1)c1nc(N)no1` (stereo not drawn) [Example 21, 3-amino-5-(1-(2-fluoro-4-biphenylyl)ethyl)-1,2,4-oxadiazole], the minimal effective dose in series [1] came out at 2.5 mg/kg; in series [3] it was 10 mg/kg. For the same molecule, the “Activity of Inhibition (5-lipoxygenase)” value in series [2] was “++ (40-70%)”.

`CC(C)(S)[C@@H](N)C(=O)O` [D-Penicillamine]: the “Adjuvant Arthritis (result in words)” value in series [1] (at 200 mg/kg) is “non-effective”. In addition, the “effect in rat adjuvant arthritis test, in words” value in series [1] is “non-effective”. Further, the “effect in Arthus reaction, in words” value in series [4] is given as “non-effective”. Moreover, the “effect in adjuvant arthritis test, in words” value in series [5] is “non-effective”. Further, the “effect in mice Arthus reaction test, in words” value in series [3] (mouse, in vivo) is recorded as “non-effective”.

As for `CC(c1cccc(C(=O)c2ccccc2)c1)c1nc(N(C)C)no1` (stereo not drawn) [Example 11, 3-dimethylamino-5-(1-(3-benzoylphenyl)ethyl)-1,2,4-oxadiazole], the minimal effective dose turned out to be 2.5 mg/kg in series [1] and 10 mg/kg in series [3].

As to `O=C(Nc1nc(-c2ccccc2)cs1)OCC(Cl)(Cl)Cl` [lotifazole, 4-phenyl-2-(2',2',2'-trichloroethoxycarboxamido)thiazole], the “effect in Arthus reaction, in words” value in series [4] was “effective”. Further, the “effect in adjuvant arthritis test, in words” value in series [5] is reported as “non-effective”.

In the case of `c1ccc(CCNc2nc(-c3ccccc3)cs2)cc1` [fanetizole, 2-phenethylamino-4-phenylthiazole], the “effect in Arthus reaction, in words” value in series [4] is recorded as “effective”. Moreover, in series [5], the “effect in adjuvant arthritis test, in words” value was “non-effective”.

Regarding `CNc1nc(C(C)c2ccc(-c3ccccc3)c(F)c2)cs1` (stereo not drawn) [Example 2, 4-[1-(2-fluoro-4-biphenylyl)ethyl]-2-methylaminothiazole], the figures for the minimal effective dose in series [1] and in series [3] were 25 mg/kg and 10 mg/kg, respectively.

With `CN(C)c1noc(Cc2cccc(C(=NO)c3ccccc3)c2)n1` [Example 67], the values for the minimal effective dose in series [1] and in series [3] were 10 mg/kg and 50 mg/kg, respectively. In addition, the “Activity of Inhibition (5-lipoxygenase)” value in series [2] is “+++ (70%<)”.

Consider `CC(c1ccc(-c2ccccc2)c(F)c1)c1coc(N)n1` (stereo not drawn) [Example 7, 2-Amino-4-(1-(2-fluoro-4-biphenylyl)ethyl)oxazole], for which the minimal effective dose in series [1] and in series [3] was 10 mg/kg each time.

Take `CC(c1cccc(C(=O)c2ccccc2)c1)c1cc(N)on1` (stereo not drawn) [Example 74]: the figures for the minimal effective dose in series [1] and in series [3] were 2.5 mg/kg and 50 mg/kg, respectively.

`CC(c1cccc(C(=O)c2ccccc2)c1)c1nc(N)no1` (stereo not drawn) [Example 22]: the figures for the minimal effective dose in series [1] and in series [3] were 2.5 mg/kg and 50 mg/kg, respectively. Further, the “Activity of Inhibition (5-lipoxygenase)” value in series [2] was “+++ (70%<)”.

Consider `CC(c1ccc(-c2ccccc2)c(F)c1)c1csc(N(C)C)n1` (stereo not drawn) [Example 48, 4-(1-(2-fluoro-4-biphenylyl)ethyl)-2-dimethylaminothiazole], for which the figures for the minimal effective dose in series [1] and in series [3] were 10 mg/kg and 50 mg/kg, respectively.

In the case of `CC(c1cccc(C(=NO)c2ccccc2)c1)c1nc(N)no1` (stereo not drawn) [Example 65], the “Activity of Inhibition (5-lipoxygenase)” value in series [2] is given as “+++ (70%<)”.

For `c1ccc([C@H]2CN3CCSC3=N2)cc1` [levamizole], in series [1] (at 50 mg/kg), the “Adjuvant Arthritis (result in words)” value was “non-effective”. Further, in series [1], the “effect in rat adjuvant arthritis test, in words” value is on record as “non-effective”. Besides, the “effect in Arthus reaction, in words” value in series [4] is on record as “effective”. The “effect in adjuvant arthritis test, in words” value in series [5] was “non-effective”. Moreover, the minimal effective dose in series [3] was found to be 50 mg/kg. Besides, the figures for the side effects result in series [6] and in series [6] (listed as Levamizole) were “serious side effects” and “many severe side-effects”, respectively.
